# In US8629100B2, “Method of inhibiting clostridium difficile by administration of oritavancin” (The Medicines Company, priority 2007, dated 2014):
# “Also recorded” adds a separate entry of the source.
# How the values were obtained:
# [1] = test system: C. difficile PCR ribotype 027 spores; experiment: Phase-contrast microscopy of spore germination/outgrowth; format: cell-based; settings: 10 mg/L for 2 h, washed 3x in PBS
# Description: C. difficile spores were also exposed to 10 mg/L antimicrobial for 2 h, washed 3× in sterile PBS, re-suspended and inoculated into Brazier's broth medium (pH 7). Samples were removed at 2, 4, 6, 24, 32 and 48 h. Slides were viewed under phase-contrast microscopy and percentages of phase-bright spores, phase-dark spores and vegetative cells were recorded (FIG. 4).
# Statistical analyses were performed by transforming percentage data using an Arcsin Transformation and analysed using a Wilcoxon signed rank test. P<0.05 was considered statistically significant. Supra-MIC concentrations of all antimicrobials prevented outgrowth but not germination of C. difficile spores.
# [2] = test system: C. difficile PCR ribotype 001 (vegetative, spores); experiment: Growth on antibiotic-exposed cellulose acetate filters (Example 3C); format: cell-based; settings: for Growth of vegetative C. difficile on filters through which antibiotic had been filtered: PCR ribotype 001 overnight culture, anaerobic incubation; for Growth of C. difficile spores on filters through which antibiotic had been filtered: PCR ribotype 001 spores
# Description: One mL solutions (containing no C. difficile spores) were processed as in Experiment 2B and filters placed onto Braziers CCEY agar. Onto the filters were inoculated 2×20 μL of:
# a) Vegetative C. difficile (an overnight culture of PCR ribotype 001)
# b) C. difficile spores (PCR ribotype 001), or
# Growth/no growth was recorded following anaerobic incubation.
# C. difficile ATCC 43255 = experiment: Hamster model of CDI, intravenous administration; format: in vivo, Syrian golden hamsters
# Description: C. difficile ATCC 43255 was used in all experiments. This strain was originally isolated from an abdominal wound and is toxin A+/B+ and binary toxin negative. C. difficile spores were prepared for the infection by incubating C. difficile cells on blood agar plate at 37° C. anaerobically for 7 days, to promote spore formation. The C. difficile colonies were resuspended in phosphate buffered saline (PBS) and mixed with an equal volume of 100% ethanol for one hour. The spores were centrifuged, resuspended in PBS, aliquoted, and frozen at −20° C. Spores were diluted in PBS for oral inoculation into hamsters.
# All studies were performed in accordance with protocols that were approved by the Institutional Animal Care and Use Committee. […] One day later (Day 0), animals were infected orally with 10^5 C. difficile spores by oral gavage.
# Starting on Day 1 post-infection, either vehicle, vancomycin (50 mg/kg), or oritavancin formulated in 10% hydroxypropyl β-cyclodextrin (HPCD) (50 mg/kg) was administered intravenously […] to the hamsters (n=10/group). A total of either 1, 2 or 3 doses of oritavancin was injected on Days 1, 3, and 5, respectively (q2d).
# The infected hamsters received the first dose of antibiotic on day 1 and treatment was repeated each 2 days for up to five days; an untreated group was used as control.
# [3] = test system: C. difficile (CD) ATCC 43255; experiment: Hamster model of CDI, oral administration; format: in vivo, Syrian golden hamsters; settings: for Survival prolonged more than untreated animals: formulated in HPCD, gavage; for Mean survival time: ORI 100 mg/kg (HPCD), VA 50 mg/kg/day, oral, 5 days
# Description: C. difficile (CD) ATCC 43255 was used in all experiments. CD spores were prepared for the infection by incubating CD cells on blood agar plate at 37° C. anaerobically for 7 days, to promote spore formation. The CD colonies were resuspended in phosphate buffered saline (PBS) and mixed with an equal volume of 100% ethanol for one hour. The spores were centrifuged, resuspended in PBS, aliquoted, and frozen at −20° C. Spores were diluted in PBS for oral inoculation into hamsters.
# All studies were performed in accordance with protocols that were approved by the Institutional Animal Care and Use Committee. […] One day later (Day 0), animals were infected orally with […] CD spores.
# 1) Starting on Day 1 post-infection (PI), a single dose of either vehicle, vancomycin (VA) (50 mg/kg/day), or oritavancin (ORI) formulated in 10% hydroxypropyl β-cyclodextrin (HPCD) (10, 50 or 100 mg/kg/day) was administered to the hamsters (n=10/group) by gavage for 5 days.
# Detection of CD cells and toxins were detected in the caecal contents of animals at both the experimental and clinical endpoints. Presence of CD toxins (toxin A and B) were detected by using the CD TOX A/B IITM kit (Techlab) as described by the manufacturer. Limit of detection was ≧0.8 ng/mL for Toxin A and ≧2.5 ng/mL of Toxin B. Total viable cells (TC) (both vegetative and spore forms) were enumerated by serially diluting the caecal content by 10 fold in PBS containing 2% oxyrase (Oxyrase Inc). The caecal content dilutions were plated on Brazier's CCEY lysozyme agar (Lab160) without egg yolk. CD spores were counted by treating caecum samples with an equal volume of pure ethanol. The limit of detection (LOD) was 1.47 and 1.77 Log 10 CFU/g caecal content for TC and spores, respectively.
# Data were analyzed by Kaplan-Meier and Log rank Wilcoxon tests survival analysis by using GraphPad Prism (version 5.00). A p-value lower than 0.05 (p<0.05) was considered to indicate statistical significance.
# [4] = three intravenous doses 50 mg/kg q2d (Days 1, 3, 5)
SMILES,Outgrowth of C. difficile spores prior-exposed to antimicrobial [1],Growth of vegetative C. difficile on filters through which antibiotic had been filtered [2],Growth of C. difficile spores on filters through which antibiotic had been filtered [2],Vegetative C. difficile recovered on exposed filters ([2]; on one plate) [cfu],Survival longer than animals with equivalent dose and regimen (2×q2d) of vancomycin (C. difficile ATCC 43255; 2 doses 50 mg/kg intravenous) [days],"Survival prolonged compared to untreated animals (C. difficile ATCC 43255; one intravenous dose 50 mg/kg (Day 1), in 10% HPCD) [days]",Survival prolonged compared to untreated animals (C. difficile ATCC 43255; [4]) [days],"Survival prolonged compared to untreated animals (C. difficile ATCC 43255; two intravenous doses 50 mg/kg q2d (Days 1 and 3), in 10% HPCD) [days]",Survival prolonged more than untreated animals ([3]; 10 mg/kg once daily for 5 days) [days],Survival prolonged more than untreated animals ([3]; 50 mg/kg once daily for 5 days) [days],Survival prolonged more than untreated animals ([3]; 100 mg/kg once daily for 5 days) [days],"Efficacy compared to VA on Day 12 PI ([3]; 100 mg/kg, HPCD)",Mean survival time [3] [days],Proportional survival rate on Day 5 (C. difficile ATCC 43255; 50 mg/kg q2d intravenous) [%],Treated animals that died between the second and third injections (Days 3 and 5) (C. difficile ATCC 43255; 50 mg/kg q2d intravenous) [%]
"CN[C@H](CC(C)C)C(=O)N[C@H]1C(=O)N[C@@H](CC(N)=O)C(=O)N[C@H]2C(=O)N[C@H]3C(=O)N[C@H](C(=O)N[C@H](C(=O)O)c4cc(O)cc(O)c4-c4cc3ccc4O)[C@H](O[C@H]3C[C@](C)(N)[C@@H](O)[C@H](C)O3)c3ccc(c(Cl)c3)Oc3cc2cc(c3O[C@@H]2O[C@H](CO)[C@@H](O)[C@H](O)[C@H]2O[C@H]2C[C@](C)(NCc3ccc(-c4ccc(Cl)cc4)cc3)[C@@H](O)[C@H](C)O2)Oc2ccc(cc2Cl)[C@H]1O [oritavancin, N-(4-(4-chlorophenyl)benzyl)A82846B]",much lower than control; also recorded: significantly inhibited,Greatly reduced numbers,unrecoverable,1,5,4,7,5,9,13,> 17,superior efficacy,17,,
CN[C@H](CC(C)C)C(=O)N[C@H]1C(=O)N[C@@H](CC(N)=O)C(=O)N[C@H]2C(=O)N[C@H]3C(=O)N[C@H](C(=O)N[C@H](C(=O)O)c4cc(O)cc(O)c4-c4cc3ccc4O)[C@H](O)c3ccc(c(Cl)c3)Oc3cc2cc(c3O[C@@H]2O[C@H](CO)[C@@H](O)[C@H](O)[C@H]2O[C@H]2C[C@](C)(N)[C@H](O)[C@H](C)O2)Oc2ccc(cc2Cl)[C@H]1O [vancomycin],not observed,grew,good growth,,,,8,,,,,,12,30,70
